# Reference: patent US20120309676A1, “Lantibiotic Salts” (priority 2010, published 2012)
# Structures can show the parent of a compound that is named as a salt. Where two headings read alike, the source gives them in different places.
# Legend:
# S. pyogenes = assay: MIC susceptibility testing, S. pyogenes; assay type: cell-based
# Experimental: (§1) Susceptibility testing with the exception of Streptococcus pneumoniae was performed by two-fold serial dilutions in Mueller Hinton Broth supplemented with 50 μg/mL Ca^2+. Susceptibility testing of S. pneumoniae was performed by two-fold serial dilutions in Brain-Heart-Infusion Broth supplemented with 50 μg/mL Ca^2+.
# (§2) Modal values from up to 6 determinations
# [1] = system: Staphylococcus aureus methicillin resistant ATCC 33591; assay: Mouse bacteraemia model, SC dosing; assay type: in vivo
# Experimental: Groups of 6 male CD-1 (Crl.) derived mice weighing 24±2 g were used. Mice were inoculated intraperitoneally (IP) with an LD90-100 of Staphylococcus aureus methicillin resistant ATCC 33591 (1.1×10^7 CFU/mouse) in 0.5 mL of BHI broth containing 5% mucin. Example 1 and vancomycin were dissolved in 15% HPbetaCD/4.4% glucose/0.5 mM KH2PO4, pH 5.0 and doses of 1, 3, 5, 10 and 20 mg/Kg were administered subcutaneously (SC) to test animals at 0, 2 and 24 hour(s) after bacteria challenge. The dosing volume was 5 mL/Kg. Mortality was recorded once daily for 7 days (FIG. 1). The ED50 for each compound was determined by nonlinear regression.
# [2] = system: Methicillin Resistant Staphylococcus aureus (MRSA, ATCC 33591); assay: Neutropaenic mouse thigh infection model, further experiment; assay type: in vivo; settings: IV 2 and 14 h after infection, 2.5-50 mg/Kg, FIG. 3
# Experimental: In a further experiment, groups of 6 male ICR mice weighing 24±2 g were used. Test animals were immunosuppressed by 2 intraperitoneal injections of cyclophosphamide, the first at 150 mg/Kg 4 days before infection (day-4) and the second at 100 mg/Kg 1 day before infection (day-1). On day 0, individual animals were inoculated intramuscularly (IM) into the right thigh of test animals with 1.5×10^5 CFU/mouse of Methicillin Resistant Staphylococcus aureus (MRSA, ATCC 33591) suspended in 100 μL of sterile PBS, pH 7.4. Vehicle and test substances were administered intravenously (IV) at a dose volume of 8 mL/Kg, 2 and 14 hours after thigh infection. Example 1 was dissolved in 5% dextrose/1 mM potassium phosphate, pH 5.0 and administered at doses of 2.5, 5, 10, 15, 25 and 50 mg/Kg. At 26 hours after inoculation, muscle of the right thigh of each test mouse was harvested. From an additional group with no treatment, muscle of the right thigh was harvested at 2 hours after inoculation for the basal CFU determination. The removed muscle tissues were then homogenized in 3-4 mL of PBS, pH 7.4 with a ceramic mortar. Homogenates of 0.1 mL were used for serial 10-fold dilutions and plated on Mueller Hinton broth in 1.5% Bacto agar for CFU determination.
# [3] = system: Vancomycin-intermediate Staphylococcus aureus; assay: MIC susceptibility testing, vancomycin-intermediate Staphylococcus aureus; assay type: cell-based
# Experimental: as §1, §2
# Aqueous solubility = assay type: physicochemical
# Description: Solubility as employed herein is used generically to refer to a distribution of a compound of formula (I) in a solvent (for example water, saline or an aqueous isotonic solution such as glucose) such that the formulation/composition resulting therefrom is substantially free of visible aggregates and for example is substantially transparent when viewed by the naked eye. Such a formulation would therefore include a whole range of formats which are suitable for infusion and/or injection such as solutions, suspensions, colloids and the like. […]
# [4] = system: Vancomycin sensitive enterococci, E. faecium; assay: MIC susceptibility testing, vancomycin sensitive enterococci (E. faecium); assay type: cell-based
# Experimental: as §1, §2
# [5] = system: Vancomycin sensitive enterococci, E. faecalis; assay: MIC susceptibility testing, vancomycin sensitive enterococci (E. faecalis); assay type: cell-based
# Experimental: as §1, §2
# [6] = system: Methicillin-sensitive Staph. epidermidis; assay: MIC susceptibility testing, methicillin-sensitive Staph. epidermidis; assay type: cell-based, S. epidermidis
# Experimental: as §1, §2
# [7] = system: Methicillin-resistant Staph. epidermidis; assay: MIC susceptibility testing, methicillin-resistant Staph. epidermidis; assay type: cell-based, S. epidermidis
# Experimental: as §1, §2
# [8] = system: Vancomycin resistant enterococci, E. faecalis; assay: MIC susceptibility testing, vancomycin resistant enterococci (E. faecalis); assay type: cell-based
# Experimental: as §1, §2
smiles,measurement,setting,value
"CC[C@H](C)[C@@H]1NC(=O)[C@@H]2NC(=O)[C@H](CC(C)C)NC(=O)[C@H](NC(=O)[C@@H]3CSC[C@@H](N)C(=O)N[C@@H](CO)C(=O)NCC(=O)N[C@@H](Cc4c[nH]c5ccccc45)C(=O)N[C@@H](C(C)C)C(=O)N3)[C@H](C)SC[C@H](NC(=O)[C@H](CCC(=O)O)NC1=O)C(=O)NCC(=O)N[C@H]1C(=O)N[C@@H](CC(C)C)C(=O)N[C@@H](C(C)C)C(=O)N[C@@H](CS[C@H]2C)C(=O)N[C@@H](C)C(=O)N[C@H](C(=O)NCc2cc(Cl)cc(Cl)c2)CS[C@H]1C [Example 1, Deoxyactagardine B (3,5-dichlorobenzylamine) monocarboxamide N-methyl glucamine salt]",MIC,S. pyogenes; S. pyogenes 7713283,0.06 mg/L
same,MIC,S. pyogenes; S. pyogenes 7755255,<2 mg/L
same,MIC,S. pyogenes; S. pyogenes 7755441,0.06 mg/L
same,MIC,S. pyogenes; S. pyogenes 7755584,0.06 to 0.125 mg/L
same,MIC,S. pyogenes; S. pyogenes 7757080,<1 mg/L
same,MIC,S. pyogenes; S. pyogenes 7865253,0.06 mg/L
same,MIC,S. pyogenes; S. pyogenes 7865289,0.06 mg/L
same,MIC,S. pyogenes; S. pyogenes 7865844,8 mg/L
same,MIC,S. pyogenes; S. pyogenes GRL05041,<1 mg/L
same,MIC,S. pyogenes; S. pyogenes GRL05042,0.06 mg/L
same,MIC,S. pyogenes; S. pyogenes GRL05043,<8 mg/L
same,MIC,S. pyogenes; S. pyogenes GRL05045,<4 mg/L
same,MIC,S. pyogenes; S. pyogenes GRL05046,0.06 mg/L
same,survival rate,[1]; 3 mg/Kg,100%
same,antimicrobial effect against S. aureus (MRSA) in mice,"[1]; 3, 5, 10 and 20 mg/Kg×3, SC",significant antimicrobial effect
same,increase in survival rate,"[1]; 3, 5, 10 and 20 mg/Kg×3, SC",at least 50%
same,estimated ED50,"[1]; CD-1 mice, SC at 0, 2 and 24 h after challenge, mortality over 7 days, nonlinear regression",1.07 mg/kg
same,bacterial counts in the thigh tissue,[2],dose dependent reduction
same,MIC,[3]; S. aureus 2,4 mg/L
same,MIC,[3]; S. aureus 26,4 mg/L
same,MIC,[3]; S. aureus MI,16 mg/L
same,MIC,[3]; S. aureus Mu3,8 mg/L
same,MIC,[3]; S. aureus Mu50,4 mg/L
same,MIC,[3]; S. aureus NJ,8 mg/L
same,MIC,[3]; S. aureus V99,4 mg/L
same,pH of saturated solution,"Aqueous solubility; aqueous saturated solution, listed as N-methyl-D-glucamine salt",8.43
same,Solubility,"Aqueous solubility; aqueous, * = calculations made from two determinations, listed as N-methyl-D-glucamine salt",6.87* mg/mL
same,Solubility,"Aqueous solubility; water, salts of compound 1, read-out: solubility",> 10 mg/mL
same,MIC,[4]; E. faecium 19579,4 mg/L
same,MIC,[4]; E. faecium 7754422,<8 mg/L
same,MIC,[4]; E. faecium 7865229,16 mg/L
same,MIC,[5]; E. faecalis 7757400,<4 mg/L
same,MIC,[5]; E. faecalis 7791220,<16 mg/L
same,MIC,[5]; E. faecalis GRL05022,<8 mg/L
same,MIC,[5]; E. faecalis GRL05023,4 mg/L
same,MIC,[5]; E. faecalis GRL05024,<8 mg/L
same,MIC,[5]; E. faecalis GRL05026,8 mg/L
same,MIC,[5]; E. faecalis GRL05027,4 to 8 mg/L
same,MIC,[5]; E. faecalis GRL05029,4 mg/L
same,MIC,[5]; E. faecalis GRL05030,<8 mg/L
same,MIC,[6]; S. epidermidis 9AF,16 mg/L
same,MIC,[6]; S. epidermidis C12,16 mg/L
same,MIC,[6]; S. epidermidis C16,16 mg/L
same,MIC,[6]; S. epidermidis GRL05001,8 mg/L
same,MIC,[6]; S. epidermidis GRL05002,8 mg/L
same,MIC,[6]; S. epidermidis GRL05003,8 mg/L
same,MIC,[6]; S. epidermidis GRL05004,4 to 8 mg/L
same,MIC,[6]; S. epidermidis GRL05005,4 to 8 mg/L
same,MIC,[6]; S. epidermidis GRL05006,4 to 8 mg/L
same,MIC,[6]; S. epidermidis GRL05007,<16 mg/L
same,MIC,[6]; S. epidermidis GRL05008,4 to 8 mg/L
same,MIC,[6]; S. epidermidis GRL05009,16 mg/L
same,MIC,[6]; S. epidermidis GRL05010,<16 mg/L
same,MIC,[6]; S. epidermidis MF87,4 mg/L
same,MIC,[7]; S. epidermidis 7753921,8 to 16 mg/L
same,MIC,[7]; S. epidermidis 7755298,8 mg/L
same,MIC,[7]; S. epidermidis 7765349,4 mg/L
same,MIC,[7]; S. epidermidis 7864847,<16 mg/L
same,MIC,[7]; S. epidermidis 7865688,16 mg/L
same,MIC,[7]; S. epidermidis GRL05011,16 mg/L
same,MIC,[7]; S. epidermidis GRL05012,8 mg/L
same,MIC,[7]; S. epidermidis GRL05013,8 to 16 mg/L
same,MIC,[7]; S. epidermidis GRL05014,8 to 16 mg/L
same,MIC,[7]; S. epidermidis GRL05015,8 to 16 mg/L
same,MIC,[7]; S. epidermidis GRL05016,4 to 8 mg/L
same,MIC,[7]; S. epidermidis GRL05017,16 mg/L
same,MIC,[7]; S. epidermidis GRL05019,16 mg/L
same,MIC,[7]; S. epidermidis GRL05020,4 mg/L
same,MIC,[8]; E. faecalis 9758512,8 mg/L
same,MIC,[8]; E. faecalis GRL05031,2 to 4 mg/L
same,MIC,[8]; E. faecalis GRL05032,8 mg/L
same,MIC,[8]; E. faecalis GRL05033,8 mg/L
same,MIC,[8]; E. faecalis GRL05034,4 mg/L
same,MIC,[8]; E. faecalis GRL05035,8 mg/L
